Measurements as given in the CheMixHub ionic liquid set.
± gives the uncertainty stated by the source.

Assay: xn = mol fraction of the nth substance listed
Conditions: 100 kPa

N[C@@H](Cc1c[nH]cn1)C(=O)O + CCCC[n+]1ccn(C)c1.F[B-](F)(F)F + O
viscosity [mPa·s]
Conditions	293.15 K	298.15 K	303.15 K
x1 = 0.0002714, x2 = 0.0003602	1.038 ± 0.061	0.925 ± 0.061	0.843 ± 0.061
x1 = 0.0002725, x2 = 0.0007201	1.07 ± 0.061	0.959 ± 0.061	0.876 ± 0.061
x1 = 0.0002736, x2 = 0.00108	1.101 ± 0.061	0.991 ± 0.061	0.912 ± 0.061
x1 = 0.0004522, x2 = 0.0003601	1.041 ± 0.061	0.927 ± 0.061	0.845 ± 0.061
x1 = 0.000454, x2 = 0.00072	1.073 ± 0.061	0.962 ± 0.061	0.879 ± 0.061
x1 = 0.0004559, x2 = 0.00108	1.104 ± 0.061	0.994 ± 0.061	0.915 ± 0.061
x1 = 0.0006329, x2 = 0.00036	1.044 ± 0.061	0.93 ± 0.061	0.848 ± 0.061
x1 = 0.0006355, x2 = 0.0007198	1.076 ± 0.061	0.965 ± 0.061	0.882 ± 0.061
x1 = 0.0006382, x2 = 0.001079	1.107 ± 0.061	0.997 ± 0.061	0.918 ± 0.061
x1 = 0.0008136, x2 = 0.00036	1.047 ± 0.061	0.933 ± 0.061	0.851 ± 0.061
x1 = 0.000817, x2 = 0.0007197	1.079 ± 0.061	0.968 ± 0.061	0.885 ± 0.061
x1 = 0.0008203, x2 = 0.001079	1.11 ± 0.061	1 ± 0.061	0.921 ± 0.061
x1 = 0.0009942, x2 = 0.0003599	1.05 ± 0.061	0.936 ± 0.061	0.854 ± 0.061
x1 = 0.0009983, x2 = 0.0007196	1.082 ± 0.061	0.971 ± 0.061	0.888 ± 0.061
x1 = 0.001002, x2 = 0.001079	1.113 ± 0.061	1.003 ± 0.061	0.924 ± 0.061
x1 = 0.001175, x2 = 0.0003598	1.053 ± 0.061	0.939 ± 0.061	0.856 ± 0.061
x1 = 0.00118, x2 = 0.0007194	1.085 ± 0.061	0.974 ± 0.061	0.89 ± 0.061
x1 = 0.001185, x2 = 0.001079	1.116 ± 0.061	1.006 ± 0.061	0.927 ± 0.061
x1 = 0.001355, x2 = 0.0003598	1.056 ± 0.061	0.942 ± 0.061	0.859 ± 0.061
x1 = 0.001361, x2 = 0.0007193	1.088 ± 0.061	0.976 ± 0.061	0.893 ± 0.061
x1 = 0.001366, x2 = 0.001079	1.119 ± 0.061	1.008 ± 0.061	0.929 ± 0.061
x1 = 0.001536, x2 = 0.0003597	1.059 ± 0.061	0.944 ± 0.061	0.862 ± 0.061
x1 = 0.001542, x2 = 0.0007192	1.091 ± 0.061	0.979 ± 0.061	0.896 ± 0.061
x1 = 0.001548, x2 = 0.001078	1.122 ± 0.061	1.011 ± 0.061	0.932 ± 0.061
x1 = 0.001716, x2 = 0.0003596	1.062 ± 0.061	0.947 ± 0.061	0.864 ± 0.061
x1 = 0.001723, x2 = 0.000719	1.094 ± 0.061	0.982 ± 0.061	0.898 ± 0.061
x1 = 0.00173, x2 = 0.001078	1.125 ± 0.061	1.014 ± 0.061	0.934 ± 0.061
